The record followed here is patent US20180282819A1, “Targeting the Histone Pathway to Detect and Overcome Anthracyclin Resistance” (ONTARIO INSTITUTE FOR CANCER RESEARCH (OICR), priority 2015, published 2018).

Type in all cases: cell-based, human
The subject of test [1] is MCF7 30 nM-R. The test is described as follows: Apoptosis, Annexin V flow cytometry. To be noted: 72 h. As for the experimental part: (§1) For cell cycle, cells were synchronized by the double-thymidine block (Whitfield et al. 2000) and incubated with DMSO or epirubicin doses established for each cell line: 25 nM for MDA-MB-231, 30 nM for MCF7, 15 nM for SKBR3, 10 nM for ZR-75-1. Cells were collected at 48 h, fixed with 80% ethanol and incubated with 2 mg/ml RNase A and 0.1 mg/ml propidium iodide (both from Sigma, Oakville, Canada) prior to analysis. For apoptosis experiments, cells were treated with DMSO or epirubicin at concentrations described above, and collected at 72 h for staining with Annexin V apoptosis-detection eFluor450 (eBioscience, San Diego, USA). Data were collected by FACSCanto II and FACSDiva (BD Biosciences, Mississauga, Canada) and analyzed by FlowJo (Treestar, Ashland, USA).
(§2) To assess the effects of epirubicin on apoptosis, apoptotic cells were scored by flow cytometry after 72 h of exposure to epirubicin. The apoptotic index was consistently lower for resistant cells compared to native controls (Table 1). In particular, MDA-MB-231 and SKBR3 resistant cells required a substantially higher concentration of epirubicin (1000 nM) to induce apoptosis; even at this concentration of epirubicin, the apoptotic index was still nearly 50% lower compared to the native cells (Table 1).

Test [2] deals with MCF7 Native. Description: Apoptosis, Annexin V flow cytometry. The following applies: 72 h. As to the method: as §1, §2
A general note: Flow cytometry measures light scatter and fluorescence of single cells or particles in a stream.

For test [3], the system named is MDA-MB-231 25 nM-R. The test is described as follows: Apoptosis, Annexin V flow cytometry. To be noted: 72 h. As to the method: as §1, §2
Test [4] deals with MDA-MB-231 Native. Description: Apoptosis, Annexin V flow cytometry. To be noted: 72 h. As for the experimental part: as §1, §2
The subject of test [5] is SKBR3 15 nM-R. The test is described as follows: Apoptosis, Annexin V flow cytometry. The following applies: 72 h. As for the experimental part:
as §1, §2

In test [6] the test system is SKBR3 Native. Description: Apoptosis, Annexin V flow cytometry. To be noted: 72 h. As to the method: as §1, §2
Test [7] has as its system ZR-75-1 10 nM-R. Description: Apoptosis, Annexin V flow cytometry. The following applies: 72 h. As to the method:
as §1, §2

In test [8] the test system is ZR-75-1 Native. The test is described as follows: Apoptosis, Annexin V flow cytometry. To be noted: 72 h. As to the method:
as §1, §2

Test [9] has as its system MCF7 30 nM-Resistant. Description: Proliferation, cell-doubling time. The following applies: +30 nM epirubicin. As to the method: (§3) Cells were cultured in the presence or absence of epirubicin for up to 96 h (see Flow Cytometry for epirubicin concentrations). Cells were collected at 24, 48, 72 and 96 hours and counted by ViCell (Beckman Coulter, Mississauga, Canada). Data were analyzed in GraphPad Prism5 software.
(§4) To determine cell-doubling time, the investigators cultured cells with or without epirubicin for up to 96 h. In the absence of epirubicin, the native MDA-MB-231 and MCF7 cell populations doubled every 25 h and 29 h, respectively (Table 2), whereas native SKBR3 and ZR-75-1 cells grew more slowly, doubling every 45 h and 50 h, respectively. In the presence of epirubicin, doubling time increased 2.8-fold for the MDA-MB-231 (p=0.0371), 2.5-fold for MCF7 (ns), 1.3-fold for SKBR3 (p=0.0494) and 1.9-fold for ZR-75-1 (p=0.0258) for native cells. In contrast to the native cell lines, there were no marked changes in the doubling time of the resistant cells, regardless of whether epirubicin was added (Table 2).

Test [10] relates to MCF7 Native. Description: Proliferation, cell-doubling time. As for the experimental part: as §3, §4
Test [11] relates to MDA-MB-231 25 nM-Resistant. Description: Proliferation, cell-doubling time. The following applies: +25 nM epirubicin. As for the experimental part:
as §3, §4

In test [12] the test system is MDA-MB-231 Native. Description: Proliferation, cell-doubling time. As for the experimental part: as §3, §4
Test [13] deals with SKBR3 15 nM-Resistant. The test is described as follows: Proliferation, cell-doubling time. To be noted: +15 nM epirubicin. As for the experimental part:
as §3, §4

Test [14] concerns SKBR3 Native. Description: Proliferation, cell-doubling time. As for the experimental part:
as §3, §4

The subject of test [15] is ZR-75-1 10 nM-Resistant. The test is described as follows: Proliferation, cell-doubling time. The following applies: +10 nM epirubicin. As to the method: as §3, §4
Test [16] relates to ZR-75-1 Native. Description: Proliferation, cell-doubling time. As to the method:
as §3, §4

The subject of test [17] is MCF7 epirubicin-resistant cells. The test is described as follows: Cell cycle, PI flow cytometry after double-thymidine block. To be noted: 100 nM epirubicin, 48 h. As to the method: (§5) (A-D) Cells were synchronized by a double-thymidine block and treated with DMSO or epirubicin at selection doses established for each resistant cell line: 25 nM epirubicin to MDA-MB-231, 30 nM epirubicin to MCF7, 15 nM epirubicin to SKBR3 and […]. Epirubicin concentration was increased to 100 nM for MCF7 and SKBR3 cells since G2/M block was not observed at the lower doses of epirubicin. Cells were collected at 48 h, stained by PI and analyzed by flow cytometry. Debris was gated out.
as §1
(§6) Cells were synchronized prior to exposure to DMSO or epirubicin. […] Therefore, overcoming a G2/M block may be part of the process leading to epirubicin resistance.

Test [18] concerns MCF7 native cells. Described as above. The following applies: 100 nM epirubicin, 48 h. As for the experimental part: as §5, §1, §6
For test [19], the system named is MDA-MB-231 native cells. The description is as above. To be noted: 25 nM epirubicin, 48 h. As for the experimental part:
as §5, §1, §6

Test [20] concerns MDA-MB-231 resistant cells. The test is described as above. To be noted: 25 nM epirubicin, 48 h. As to the method: as §5, §1, §6
For test [21], the system named is SKBR3 epirubicin-resistant cells. Described as above. The following applies: 100 nM epirubicin, 48 h. As for the experimental part:
as §5, §1, §6

Test [22] deals with SKBR3 native cells. The test is described as above. To be noted: 100 nM epirubicin, 48 h. As to the method:
as §5, §1, §6

Test [23] has as its system ZR-75-1 native cells. The test is described as above. The following applies: 10 nM epirubicin, 48 h. As for the experimental part:
as §5, §1, §6

The test system of test [24] is ZR-75-1 resistant cells. The description is as above. To be noted: 10 nM epirubicin, 48 h. As to the method: as §5, §1, §6
The subject of test [25] is all four epirubicin-resistant cell lines (MDA-MB-231, MCF7, SKBR3, ZR-75-1). Description: Drug resistance and cross resistance, CCK-8 viability. To be noted: 72 h. As to the method: Native and resistant cells were exposed to drug concentrations ranging from 0.3 nM to 3000 nM. Cell viability was determined 72 h later by CCK-8 assay. A) Percent of live cells relative to DMSO control was plotted against epirubicin concentration. Black=native cells, magenta=resistant cells. B) IC50 values in nM concentration±standard deviation. Resistance factor is shown in parenthesis and represents resistant IC50/native IC50.
Breast cancer cell lines (MDA-MB-231, MCF7, ZR-75-1, SKBR3) were purchased from ATCC and cultured in DMEM (except SKBR3, cultured in RPMI) supplemented with 10% heat-inactivated fetal bovine serum and 1% L-glutamine (Gibco, Burlington, Canada). Epirubicin-resistant cell lines were generated by exposing native cells to increasing concentrations of epirubicin with an initial concentration set at 0.5 nM. Resistance was defined when IC50 value superseded the IC50 value of the corresponding native cell line, and resistant cells could not tolerate further increase in drug concentration. Drug resistance and cross resistance were determined by exposing cells to drug concentrations ranging from 0.3-3000 nM for 72 h. Cell viability was determined by Cell Counting Kit-8 (CCK-8, Dojindo, Cedarlane, Burlington, Canada). IC50 were calculated in GraphPad Prism5.

Each structure is given as a SMILES string.

Take `COc1cccc2c1C(=O)c1c(O)c3c(c(O)c1C2=O)C[C@@](O)(C(=O)CO)C[C@@H]3O[C@H]1C[C@H](N)[C@@H](O)[C@H](C)O1` [epirubicin]: the “Percentages of apoptotic cells” value is 24% in test [1] (1 nM epirubicin); 23% in test [1] (30 nM epirubicin); 78% in [1] (1000 nM epirubicin); 29% in [2] (1 nM epirubicin); 49% in test [2] (30 nM epirubicin); 77% in test [2] (1000 nM epirubicin). Further, the “Percentages of apoptotic cells” value was determined as 10% in [3] (1 nM epirubicin); 8% in test [3] (25 nM epirubicin); 50% in [3] (1000 nM epirubicin); 17% in test [4] (1 nM epirubicin); 41% in [4] (25 nM epirubicin); 94% in [4] (1000 nM epirubicin). Also, the “Percentages of apoptotic cells” value in test [5] (1 nM epirubicin) is 17%; in [5] (15 nM epirubicin) it was 17%; in test [5] (1000 nM epirubicin), 34%; in test [6] (1 nM epirubicin) it was 26%; in [6] (15 nM epirubicin), 24%; in test [6] (1000 nM epirubicin), 59%. For the same compound, the “Percentages of apoptotic cells” value in test [7] (1 nM epirubicin) was 28%; in [7] (10 nM epirubicin), 29%; in test [7] (1000 nM epirubicin) it was 62%; in [8] (1 nM epirubicin) it was 44%; in test [8] (10 nM epirubicin), 47%; in test [8] (1000 nM epirubicin) it was 71%. Also, the Doubling times in [9] came out at 37 h; in test [10] (MCF7 Native, +30 nM epirubicin) it was 74 h; in test [11], 43 h; in [12] (MDA-MB-231 Native, +25 nM epirubicin), 70 h; in test [13] it was 66 h; in test [14] (SKBR3 Native, +15 nM epirubicin) it was 57 h. The Doubling times was determined as 67 h in test [15] and 95 h in test [16] (ZR-75-1 Native, +10 nM epirubicin). For the same compound, the “increase of doubling time in the presence of epirubicin” value in test [10] (MCF7 native cells, ns) is 2.5 fold; in [12] (MDA-MB-231 native cells, p=0.0371), 2.8 fold; in test [14] (SKBR3 native cells, p=0.0494), 1.3 fold; in test [16] (ZR-75-1 native cells, p=0.0258), 1.9 fold. Besides, the “effect on cell cycle” value in test [17] is given as “minimal effect”; in test [18], “arrested in G2/M phase”; in test [19], “arrested in G2/M phase”; in test [20], “progressed through”; in test [21] it was “minimal effect”; in [22], “arrested in G2/M phase”. Further, the entries for the “effect on cell cycle” value in [23] and in [24] were “arrested in G2/M phase” and “progressed through”, respectively.

Take `COc1cccc2c1C(=O)c1c(O)c3c(c(O)c1C2=O)C[C@@](O)(C(=O)CO)C[C@@H]3O[C@H]1C[C@H](N)[C@H](O)[C@H](C)O1` [doxorubicin]: the “cross-resistance of epirubicin-resistant cell lines” value in [25] was “resistant”.
